In this test the target is T1, human transferrin (htf) (Homo sapiens, UniProt P02787).
T1 construct: gene TF; single-chain glycoprotein of 679 amino acids (mature)
As to the kind of experiment: intrinsic fluorescence quenching, modified Stern-Volmer plot. Conditions: 298 K; 4 uM htf, 0-8 uM citral; excitation 280 nm; double-log. It counts as binding. From the text: intrinsic fluorescence quenching, modified Stern-Volmer plot on human transferrin (htf)

T1 sequence (P02787 20-698): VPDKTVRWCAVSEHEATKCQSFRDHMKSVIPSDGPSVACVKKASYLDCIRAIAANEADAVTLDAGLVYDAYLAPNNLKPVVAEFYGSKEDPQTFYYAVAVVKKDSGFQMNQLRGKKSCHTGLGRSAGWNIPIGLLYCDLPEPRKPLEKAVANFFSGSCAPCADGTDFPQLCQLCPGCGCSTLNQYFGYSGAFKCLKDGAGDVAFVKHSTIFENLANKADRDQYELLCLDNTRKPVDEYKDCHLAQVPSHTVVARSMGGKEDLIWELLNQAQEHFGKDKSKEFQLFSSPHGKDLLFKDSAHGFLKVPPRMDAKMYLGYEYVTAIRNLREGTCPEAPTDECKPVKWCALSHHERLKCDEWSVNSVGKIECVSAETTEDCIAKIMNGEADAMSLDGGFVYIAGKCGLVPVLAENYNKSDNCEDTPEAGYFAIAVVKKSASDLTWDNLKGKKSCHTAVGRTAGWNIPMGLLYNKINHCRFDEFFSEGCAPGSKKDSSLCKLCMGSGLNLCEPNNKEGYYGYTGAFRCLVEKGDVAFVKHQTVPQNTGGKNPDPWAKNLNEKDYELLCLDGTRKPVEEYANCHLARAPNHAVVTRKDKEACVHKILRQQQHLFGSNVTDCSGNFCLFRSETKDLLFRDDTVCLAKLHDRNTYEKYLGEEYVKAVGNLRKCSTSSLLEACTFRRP

Regarding `CC(C)=CCCC(C)=CC=O` [citral], the “K 10^6M^-1” value is recorded as 0.82 10^6 M^-1.
